Assay results published in PubChem BioAssay (NCI).
“And” between values parts separate entries of the source, which are not always exact repeats. Identical values can stand only once.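 Exposure lasted 48 hours, with cells grown in 96-well plates and compounds tested at five concentrations. Abbreviation: GI50, concentration required for 50% inhibition of growth. TGI: total growth inhibition.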

How the values were obtained:
Test in all cases: NCI-60 cell line screen, 48 h
UACC-257 melanoma = system: UACC-257 melanoma
SN12C renal = system: SN12C renal
SR leukemia = system: SR leukemia
A498 renal = system: A498 renal
NCI-H522 lung = system: NCI-H522 lung
SF-539 CNS = system: SF-539 CNS
MDA-MB-435 = system: MDA-MB-435
A549 NSCLC = system: A549 NSCLC
LOX IMVI melanoma = system: LOX IMVI melanoma
SK-OV-3 ovarian = system: SK-OV-3 ovarian

| Structure (SMILES) | TGI (UACC-257 melanoma) | TGI (SN12C renal) | TGI (SR leukemia) | TGI (A498 renal) | TGI (NCI-H522 lung) | TGI (SF-539 CNS) | TGI (MDA-MB-435) | TGI (A549 NSCLC) | TGI (LOX IMVI melanoma) | TGI (SK-OV-3 ovarian) | GI50 (NCI-H522 lung) | GI50 (MDA-MB-435) | GI50 (UACC-257 melanoma) | GI50 (SN12C renal) | GI50 (A498 renal) | GI50 (SF-539 CNS) | GI50 (A549 NSCLC) | GI50 (LOX IMVI melanoma) | GI50 (SK-OV-3 ovarian) | GI50 (SR leukemia) |
| --- | --- | --- | --- | --- | --- | --- | --- | --- | --- | --- | --- | --- | --- | --- | --- | --- | --- | --- | --- | --- |
| O=c1ccc2cc(O)c(O)cc2o1 | > 100 µM | > 100 µM | > 100 µM | > 100 µM | > 100 µM | > 100 µM | > 100 µM | > 100 µM | > 100 µM | > 100 µM | – | – | – | – | – | – | – | – | – | – |
| NC(=O)NN=C(CS)CS | > 70.6 µM | 55 µM | – | 23.4 µM | 55.2 µM | 40.7 µM | – | 40.7 µM | 40.3 µM | > 100 µM | – | – | – | – | – | – | – | – | – | – |
| CN(C)c1ccc(/C=N\NC(=O)CSCC(=O)N/N=C/c2ccc(N(C)C)cc2)cc1 | > 100 µM | > 100 µM | > 100 µM | – | > 100 µM | > 100 µM | > 100 µM | > 100 µM | > 100 µM | > 100 µM | – | – | – | – | – | – | – | – | – | – |
| N#CC(c1ccccc1)c1nc2ccc(=N)cc-2n(O)c1C(C#N)c1ccccc1 (configuration not stated) | > 100 µM | > 100 µM | > 100 µM | > 100 µM | > 100 µM | > 100 µM | – | > 100 µM | > 100 µM | > 100 µM | – | – | – | – | – | – | – | – | – | – |
| CC(=O)C(O)N1C(=O)C=CC1=O (configuration not stated) | – | – | – | > 25 µM and 31.3 µM and 39 µM | – | – | – | 16.4 µM and 35.9 µM | – | – | > 25 µM and 13.5 µM | 10700 µM | – | – | – | – | – | – | – | – |
| O=C1c2c(c3c4ccccc4[nH]c3c3ccc4ccccc4c23)C(=O)N1CCN1CCCCC1 | 4.23 µM | 1.73 µM | – | 9.85 µM | 5.36 µM | 3.21 µM | 3.26 µM | > 100 µM | 2.33 µM | > 100 µM | 1.5 µM | 1.72 µM | 1.87 µM | 0.447 µM | 1.18 µM | 1.41 µM | 3.1 µM | 0.894 µM | 0.801 µM | – |
| COc1ccc(N2C(=O)C3c4[nH]c5c(C)cccc5c4C4CCC(C(C)(C)C)CC4C3C2=O)cc1 (configuration not stated) | – | > 10 µM | > 10 µM | > 10 µM | > 10 µM | > 10 µM | > 10 µM | > 10 µM | 4.17 µM | > 10 µM | – | – | – | – | – | – | – | – | – | – |
| NC(=O)CCCC(NCc1c2ccccc2nc2ccccc12)C(=O)O (configuration not stated) | > 100 µM | > 100 µM | > 100 µM | – | 67.7 µM | > 100 µM | – | > 100 µM | > 100 µM | > 100 µM | – | – | – | – | – | – | – | – | – | – |
| CN(C)CCCNc1ccc2ncn3c4ccccc4c(=O)c1c23 | 61.3 µM | > 100 µM | 17.7 µM | – | > 100 µM | 90.8 µM | – | – | 13.7 µM | > 100 µM | – | – | – | – | – | – | – | – | – | – |
| CN1CCCCC1CCN1CCCCC1 (configuration not stated) | > 100 µM | > 100 µM | – | > 100 µM | > 100 µM | – | > 100 µM | > 100 µM | > 100 µM | > 100 µM | – | – | – | – | – | – | – | – | – | – |
| CC12CCC(C(=O)OC1=O)C(C)(C)O2 (configuration not stated) | > 100 µM | > 100 µM | – | – | > 100 µM | > 100 µM | > 100 µM | > 100 µM | > 100 µM | > 100 µM | – | – | – | – | – | – | – | – | – | – |
| CC1C(O)C2(Oc3cc4c(c5c3[C@@H](CC5O)[C@H]2C)CCC2Cc3nc5c(nc3C[C@@]42C)CC2CCC3C4=C[C@H]6O[C@@]7(O[C@@](C)(CO)C[C@@H]7O)C(C)[C@@]6(O)[C@]4(C)[C@@H](O)CC3[C@]2(C)C5)OC1(C)C (some centres not stated) | > 3.67 µM | > 3.67 µM | – | 0.208 µM | 0.42 µM | 0.302 µM | – | 0.841 µM | 0.892 µM | 0.502 µM | – | – | – | – | – | – | – | – | – | – |
| O=NC1C(Cl)C2CC1C1C(Br)C(Br)CC21 (configuration not stated) | – | > 100 µM | > 100 µM | > 100 µM | > 100 µM | > 100 µM | > 100 µM | > 100 µM | > 100 µM | > 100 µM | – | – | – | – | – | – | – | – | – | – |
| Cc1c2cc[n+](CCN3CCCCC3)cc2c(C)c2c1[nH]c1ccc(O)cc12 | 29 µM and > 74 µM | 20.8 µM and 6.03 µM | 3.49 µM | 48 µM and 30.5 µM | 53.5 µM and 16.2 µM | 34.5 µM and > 58.8 µM | 34.5 µM | 34.7 µM and 27.8 µM | 58.2 µM and 76.2 µM | 33.9 µM and 31.2 µM | – | – | 28.7 µM | 0.16 µM | 3.48 µM | 7.38 µM | – | 8.69 µM | 4.42 µM | – |
| C/C=C/[P+](c1ccccc1)(c1ccccc1)c1ccccc1 | 11.2 µM | 16.5 µM | 2.58 µM | 41.3 µM | 10.2 µM | 16.7 µM | 5.97 µM | > 100 µM | 7.26 µM | 10.5 µM | – | – | – | – | – | – | – | – | – | – |
| COc1ccc(-c2c3c(nc4nc(SCCc5ccccc5)nc(N)c24)CCCC3)cc1OC | > 100 µM | > 100 µM | > 100 µM | – | – | > 100 µM | > 100 µM | > 100 µM | > 100 µM | > 100 µM | – | – | – | – | – | – | – | – | – | – |
| Cc1cc(NCc2cc(Nc3ccnc4cc(Cl)ccc34)ccc2F)nc(N2CCCC2)n1 | 3.53 µM | – | 1.12 µM | 3.32 µM | – | – | 3.01 µM | 6.02 µM | – | 5.09 µM | – | 1.61 µM | 1.87 µM | – | 1.44 µM | – | 2.22 µM | – | 2.04 µM | 0.265 µM |
| Cc1ccc(S(=O)(=O)NCCSCCNS(=O)(=O)c2ccc(C)cc2)cc1 | > 100 µM | > 100 µM | > 100 µM | > 100 µM | > 100 µM | – | > 100 µM | > 100 µM | > 100 µM | > 100 µM | – | – | – | – | – | – | – | – | – | – |
| CN(C)CCNc1nc(-c2ccc3ccccc3c2)nc2nc[nH]c12 | 19.5 µM | 26.3 µM | 24.7 µM | – | 6.22 µM | – | 25 µM | 26.3 µM | 18.8 µM | 20.8 µM | – | – | – | – | – | – | – | – | – | – |
| Cc1sc(Cc2ccccc2)nc1-c1ccc(N)cc1 | 84.5 µM | 40.2 µM | – | > 100 µM | 38.7 µM | – | 37.7 µM | > 100 µM | 29.8 µM | – | – | – | – | – | – | – | – | – | – | – |
| COc1ccc([C@@H]2ON(C)[C@H]3CN(C)C(=O)[C@@H]23)cc1 | > 100 µM | > 100 µM | > 100 µM | – | > 100 µM | – | – | > 100 µM | > 100 µM | > 100 µM | – | – | – | – | – | – | – | – | – | – |
